Reference: PMC2646871 (Journal of Medicinal Chemistry, 2008)

Molecular target: recombinant HIV-1 integrase (Human immunodeficiency virus type 1 group M subtype B, UniProt P12497)
Assay: High throughput electrochemiluminescent
Assay type: biochemical
Conditions: for times less potent than parent compound 6f (ST, HTECL): relative to 6f

Compound | times less potent than parent compound 6f (ST, HTECL) | IC50
O=C(O)/C(O)=C/C(=O)c1cn(Cc2ccc(F)cc2)c2cc(Cl)c(Cl)cc2c1=O [6h, 4-[6,7-Dichloro-1-(4-fluorophenyl)methyl-4(1H)-quinolinon-3-yl]-2-hydroxy-4-oxo-2-butenoic Acid] | approximately 1.5 | –
O=C(O)/C(O)=C/C(=O)c1cn(Cc2ccc(F)cc2)c2ccc(F)cc2c1=O [6b, 4-[6-Fluoro-1-(4-fluorophenyl)methyl-4(1H)-quinolinon-3-yl]-2-hydroxy-4-oxo-2-butenoic Acid] | – | 0.03 µM
O=C(O)/C(O)=C/C(=O)c1cn(Cc2ccc(F)cc2)c2c(Cl)cccc2c1=O [6g, 4-[8-Chloro-1-(4-fluorophenyl)methyl-4(1H)-quinolinon-3-yl]-2-hydroxy-4-oxo-2-butenoic Acid] | – | 0.023 µM
O=C(O)/C(O)=C/C(=O)c1cn(Cc2ccc(F)cc2)c2cc(N3CCCC3)ccc2c1=O [6i, 4-[1-(4-Fluorophenyl)methyl-7-(pyrrolidin-1-yl)-4(1H)-quinolinon-3-yl]-2-hydroxy-4-oxo-2-butenoic Acid] | approximately 1.5 | –

Second part, the compound after the results:

times less potent than parent compound 6f (ST, HTECL) | IC50 | Compound
– | > 111 µM | CCOC(=O)/C(O)=C/C(=O)c1c[nH]c2cc(Cl)ccc2c1=O [7b, 4-(7-Chloro-4(1H)-quinolinon-3-yl)-2-hydroxy-4-oxo-2-butenoic Acid Ethyl Ester]
– | > 111 µM | O=C(O)/C(O)=C/C(=O)c1c[nH]c2ccc(Cl)cc2c1=O [8a, 4-(6-Chloro-4(1H)-quinolinon-3-yl)-2-hydroxy-4-oxo-2-butenoic Acid]
